Source: ChEMBL document CHEMBL1152339, “Use of the in vivo hollow fiber assay in natural products anticancer drug discovery” (J Nat Prod, 2009)

Experiments:
Format in all cases: functional
[1] = tested on: SW626; assay: Growth inhibition of human SW626 cells xenografted in ip dosed NCr nu/nu mouse administered once daily from day 3 to 6 after implantation measured on day 7 by MTT-based hollow-fiber test
[2] = tested on: SW626; assay: Growth inhibition of human SW626 cells xenografted in NCr nu/nu mouse at 25 to 100 mg/kg, sc once daily administered from day 3 to 6 after implantation measured on day 7 by MTT-based hollow-fiber test; conditions: dose mg/kg 3-6; route subcutaneous
[3] = tested on: SK-MEL-2; assay: Growth inhibition of human SK-MEL-2 cells xenografted in ip dosed NCr nu/nu mouse administered once daily from day 3 to 6 after implantation measured on day 7 by MTT-based hollow-fiber test
[4] = tested on: MCF7; assay: Growth inhibition of human MCF7 cells xenografted in NCr nu/nu mouse at 25 to 100 mg/kg, ip once daily administered from day 3 to 6 after implantation measured on day 7 by MTT-based hollow-fiber test; conditions: dose mg/kg 3-6; route intraperitoneal
[5] = tested on: KB; assay: Growth inhibition of human KB cells xenografted in NCr nu/nu mouse at 25 to 100 mg/kg, sc once daily administered from day 3 to 6 after implantation measured on day 7 by MTT-based hollow-fiber test; conditions: route subcutaneous
[6] = tested on: LNCaP; assay: Growth inhibition of human LNCAP cells xenografted in NCr nu/nu mouse at 25 to 100 mg/kg, sc once daily administered from day 3 to 6 after implantation measured on day 7 by MTT-based hollow-fiber test; conditions: route subcutaneous
[7] = tested on: KB; assay: Growth inhibition of human KB cells xenografted in NCr nu/nu mouse at 25 to 100 mg/kg, ip once daily administered from day 3 to 6 after implantation measured on day 7 by MTT-based hollow-fiber test; conditions: route intraperitoneal
[8] = tested on: SK-MEL-2; assay: Growth inhibition of human SK-MEL-2 cells xenografted in NCr nu/nu mouse at 25 to 100 mg/kg, sc once daily administered from day 3 to 6 after implantation measured on day 7 by MTT-based hollow-fiber test; conditions: dose mg/kg 3-6; route subcutaneous
[9] = tested on: MCF7; assay: Growth inhibition of human MCF7 cells xenografted in ip dosed NCr nu/nu mouse administered once daily from day 3 to 6 after implantation measured on day 7 by MTT-based hollow-fiber test
[10] = tested on: MCF7; assay: Growth inhibition of human MCF7 cells xenografted in NCr nu/nu mouse at 25 to 100 mg/kg, sc once daily administered from day 3 to 6 after implantation measured on day 7 by MTT-based hollow-fiber test; conditions: dose mg/kg 3-6; route subcutaneous
[11] = tested on: SK-MEL-2; assay: Growth inhibition of human SK-MEL-2 cells xenografted in NCr nu/nu mouse at 25 to 100 mg/kg, ip once daily administered from day 3 to 6 after implantation measured on day 7 by MTT-based hollow-fiber test; conditions: dose mg/kg 3-6; route intraperitoneal
[12] = tested on: SW626; assay: Growth inhibition of human SW626 cells xenografted in NCr nu/nu mouse at 25 to 100 mg/kg, ip once daily administered from day 3 to 6 after implantation measured on day 7 by MTT-based hollow-fiber test; conditions: dose mg/kg 3-6; route intraperitoneal
[13] = tested on: LNCaP; assay: Growth inhibition of human LNCAP cells xenografted in ip dosed NCr nu/nu mouse administered once daily from day 3 to 6 after implantation measured on day 7 by MTT-based hollow-fiber test
[14] = tested on: LNCaP; assay: Growth inhibition of human LNCAP cells xenografted in NCr nu/nu mouse at 25 to 100 mg/kg, ip once daily administered from day 3 to 6 after implantation measured on day 7 by MTT-based hollow-fiber test; conditions: route intraperitoneal
[15] = tested on: MCF7; assay: Growth inhibition of human MCF7 cells xenografted in NCr nu/nu mouse at 6.25 to 50 mg/kg, sc once daily administered from day 3 to 6 after implantation measured on day 7 by MTT-based hollow-fiber test; conditions: dose mg/kg 3-6; route subcutaneous
[16] = tested on: MCF7; assay: Growth inhibition of human MCF7 cells xenografted in NCr nu/nu mouse at 6.25 to 50 mg/kg, ip once daily administered from day 3 to 6 after implantation measured on day 7 by MTT-based hollow-fiber test; conditions: dose mg/kg 3-6; route intraperitoneal
[17] = tested on: Col2; assay: Growth inhibition of human Col2 cells xenografted in NCr nu/nu mouse at 0.195 to 1.56 mg/kg, sc once daily administered from day 3 to 6 after implantation measured on day 7 by MTT-based hollow-fiber test; conditions: route subcutaneous
[18] = tested on: Col2; assay: Growth inhibition of human Col2 cells xenografted in ip dosed NCr nu/nu mouse administered once daily from day 3 to 6 after implantation measured on day 7 by MTT-based hollow-fiber test
[19] = tested on: LNCaP; assay: Growth inhibition of human LNCAP cells xenografted in NCr nu/nu mouse at 0.195 to 1.56 mg/kg, ip once daily administered from day 3 to 6 after implantation measured on day 7 by MTT-based hollow-fiber test; conditions: route intraperitoneal
[20] = tested on: KB; assay: Growth inhibition of human KB cells xenografted in NCr nu/nu mouse at 0.195 to 1.56 mg/kg, ip once daily administered from day 3 to 6 after implantation measured on day 7 by MTT-based hollow-fiber test; conditions: route intraperitoneal
[21] = tested on: Col2; assay: Growth inhibition of human Col2 cells xenografted in NCr nu/nu mouse at 0.195 to 1.56 mg/kg, ip once daily administered from day 3 to 6 after implantation measured on day 7 by MTT-based hollow-fiber test; conditions: route intraperitoneal
[22] = tested on: KB; assay: Growth inhibition of human KB cells xenografted in NCr nu/nu mouse at 0.195 to 1.56 mg/kg, sc once daily administered from day 3 to 6 after implantation measured on day 7 by MTT-based hollow-fiber test; conditions: route subcutaneous
[23] = tested on: LNCaP; assay: Growth inhibition of human LNCAP cells xenografted in NCr nu/nu mouse at 0.195 to 1.56 mg/kg, sc once daily administered from day 3 to 6 after implantation measured on day 7 by MTT-based hollow-fiber test; conditions: route subcutaneous

In the case of `CO[C@@]12CC[C@@]3(C)[C@@](CC[C@@H]4[C@@]5(C)CCC[C@]43OC5=O)(C1)C(=O)C2=O`, the ED50 [1] is reported as 0.58 µM, the “growth inhibition (GI)” value [2] is reported as 16% and the ED50 [3] is reported as 1.2 µM. For the same compound, the “growth inhibition (GI)” value [4] was 34%, the “growth inhibition (GI)” value [5] was 6% and the “growth inhibition (GI)” value [6] was 0%. For the same compound, the “growth inhibition (GI)” value [7] was 21%, the “growth inhibition (GI)” value [8] was 11% and the ED50 [9] was 0.87 µM. The “growth inhibition (GI)” value [10] was 0%, the “growth inhibition (GI)” value [11] was 15% and the “growth inhibition (GI)” value [12] was 0%. The ED50 [13] was 1.2 µM and the “growth inhibition (GI)” value [14] was 50%.
In the case of `C[C@]12CC[C@]3(O)C[C@@]1(CC[C@@H]1[C@@]4(C)CCC[C@]12OC4=O)C(=O)C3=O`, the “growth inhibition (GI)” value [5] is reported as 0%, the “growth inhibition (GI)” value [6] is reported as 0% and the “growth inhibition (GI)” value [7] is reported as 0%. For the same compound, the ED50 [13] was 4.5 µM and the “growth inhibition (GI)” value [14] was 0%.
With `CCCCCCCCCCCCC[C@@H]1C[C@@H](O)C[C@]2(CCC3(C=CC(=O)C=C3)O2)O1` [ACULEATIN A] the “growth inhibition (GI)” value [15] was 0% and the “growth inhibition (GI)” value [16] was 10%.
For `CC(=O)O[C@@H]1O[C@@H]([C@H]2c3cccc(O)c3C(=O)c3c(O)cc(C)cc32)[C@H](O)[C@@H](O)[C@H]1O` [ALVARADOIN E], the “growth inhibition (GI)” value [17] was 6%, the ED50 [18] was 0.23 µM and the “growth inhibition (GI)” value [19] was 60%. The “growth inhibition (GI)” value [20] was 40%, the “growth inhibition (GI)” value [21] was 31% and the ED50 [13] was 0.14 µM. For the same compound, the “growth inhibition (GI)” value [22] was 5% and the “growth inhibition (GI)” value [23] was 10%.
